Test results taken from US20100113347A1 (priority 2007, published 2010).

Columns and labels:
[1] = tested on: mice with alloxan diabetes; assay: Blood glucose level in mice with alloxan diabetes (Example 1); assay type: in vivo; details: exenatide 7.5 mcg/kg
Experimental: (§1) Diabetes was induced in white mice by a single intraperitoneal administration of alloxan in a dose of 135 mg/kg. […] Control animals received injections of saline solution. By day 31 of the experiment, the levels of blood glucose and cholesterol were measured after an overnight fast. Data are presented as a mean±standard deviation (n=5) of the measured levels of glucose or cholesterol. […] To determine the therapeutic effect of lowering the level of glucose, the following formula was used:
ΔGlucose=Glucosemedication−Glucosecontrol.
(§2) Statistical differences of the obtained results were assessed with the use of Student's t-test.

[2] = tested on: mice with alloxan diabetes; assay: Blood cholesterol level in mice with alloxan diabetes (Example 1); assay type: in vivo; details: exenatide 7.5 mcg/kg
Experimental: as §1, with “used: […]” for “used:”
To determine the therapeutic effect of lowering the level of cholesterol, the following formula was used:
ΔCholesterol=Cholesterolmedication−Cholesterolcontrol.
as §2

[3] = day 31, after overnight fast, s.c. twice daily for 30 days, dalargin 8.8 mcg/kg
[4] = day 31, after overnight fast, s.c. twice daily for 30 days, dalargin 8.8 mcg/kg, mean±SD, n=5
[5] = dalargin 8.8 mcg/kg s.c. twice daily for 30 days

tirozil-2-alanil-glycil-phenylalanyl-leucil-arginine [Dalargin]
Δ Glucose (Glucose medication − Glucose control) [1, 3]: -0.9 mmol/L | Glucose [1, 4]: 10.6 ± 1.3 mmol/L | effect on blood glucose levels after an overnight fast (in words) [1, 5]: inefficient | Δ Cholesterol (Cholesterol medication − Cholesterol control) [2, 3]: -0.27 mmol/L | Cholesterol [2, 4]: 2.34 ± 0.16 mmol/L | effect on blood cholesterol after an overnight fast (in words) [2, 5]: inefficient
